Assay results taken from patent US20090318504A1, “Use of GAL3 receptor antagonists for the treatment of depression and/or anxiety and compounds useful in such methods” (priority 2001, published 2009).

How the values were obtained:
human GAL1 receptor = molecular target: T1, human GAL1 receptor (Homo sapiens, UniProt P47211); assay: Radioligand binding at cloned human GAL1 receptor; details: pyrimidines, read-out: Ki GalR1
T1 construct: expressed in transfected cells; membranes
T1 sequence (P47211 1-349): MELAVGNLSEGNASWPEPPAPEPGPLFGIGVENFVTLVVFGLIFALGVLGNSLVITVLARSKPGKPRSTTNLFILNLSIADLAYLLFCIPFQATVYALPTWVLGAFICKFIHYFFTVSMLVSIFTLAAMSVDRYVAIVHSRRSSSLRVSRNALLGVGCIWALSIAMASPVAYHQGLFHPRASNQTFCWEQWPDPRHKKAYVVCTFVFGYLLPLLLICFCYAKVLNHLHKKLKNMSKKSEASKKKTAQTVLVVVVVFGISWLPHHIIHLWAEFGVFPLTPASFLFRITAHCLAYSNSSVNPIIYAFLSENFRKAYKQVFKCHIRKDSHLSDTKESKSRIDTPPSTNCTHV
Description: (§1) In order to test compounds for selective binding to the human GAL3 receptor the cloned cDNAs encoding both the human and rat GALL and GAL2 receptors have been used. The cloning and assay methods for the human and rat GAL1 receptors may be found in PCT International Publication No. WO 95/22608, the contents of which are hereby incorporated by reference. The cloning and assay methods for the human and rat GAL2 receptors may be found in PCT International Publication No. WO 97/26853, the contents of which are hereby incorporated by reference.
(§2) The present invention provides for a method of determining the binding affinity of a GAL3 antagonist, wherein the GAL3 antagonist is dissolved in a “suitable solvent”. A “suitable solvent” means one which permits the measurement of binding affinity of the GAL3 antagonist to the human GAL3 receptor at concentrations less than 1 μM, preferably less than 100 nM. Examples of solvents include, but are not limited to, DMSO, ethanol, N,N-dimethylacetamide, or water. For indolones, the preferred solvent is 3% DMSO (final concentration in the assay). For pyrimidines, the preferred solvent is 1% ethanol/0.09% polypuronic acid F-127 (final concentration in the assay). For any other type of compounds, the preferred solvent is the solvent which permits the measurement of binding affinity of a GAL3 antagonist at the lowest concentration. Once a suitable solvent is ascertained for the binding assay of the human GAL3 receptor, the same solvent is used in assays to determine the binding affinity at the GAL1 receptor, the serotonin transporter, the norepinephrine transporter, and the dopamine transporter. A solvent of 0.4% DMSO is used in the central monoamine oxidase enzyme assay.
(§3) The binding properties of the pyrimidines of the present invention were evaluated at the cloned human galanin receptors, GAL1, GAL2, and GAL3, using protocols described herein.
(§4) The binding properties of the indolones of the present invention were evaluated at the cloned human galanin receptors, GAL1, GAL2, and GAL3, using protocols described herein.
(§5) LM(tk−) cells were stably transfected with the human GALL or GAL3 receptor. CHO cells were stably transfected with the human GAL2 receptor.
(§6) cDNAs for the human and rat GAL1, and human and rat GAL3 receptors were transfected with a G-418 resistant gene into the mouse fibroblast LM(tk−) cell line by a calcium phosphate transfection method (Cullen, 1987). Stably transfected cells were selected with G-418. Human and rat GAL2 receptors were similarly transfected into CHO cells.
Membranes were harvested from stably transfected LM(tk−) cells. […] Protein concentration was measured by the Bradford method (Bradford, 1976) using Bio-Rad Reagent, with bovine serum albumin as a standard. […]

human GAL3 receptor = molecular target: T2, human GAL3 receptor (Homo sapiens, UniProt O60755); assay: Radioligand binding at cloned human GAL3 receptor; details: for Ki: pyrimidines, cloned human receptor, read-out: Ki GalR3
T2 construct: expressed in transfected cells; membranes
T2 sequence (O60755 1-368): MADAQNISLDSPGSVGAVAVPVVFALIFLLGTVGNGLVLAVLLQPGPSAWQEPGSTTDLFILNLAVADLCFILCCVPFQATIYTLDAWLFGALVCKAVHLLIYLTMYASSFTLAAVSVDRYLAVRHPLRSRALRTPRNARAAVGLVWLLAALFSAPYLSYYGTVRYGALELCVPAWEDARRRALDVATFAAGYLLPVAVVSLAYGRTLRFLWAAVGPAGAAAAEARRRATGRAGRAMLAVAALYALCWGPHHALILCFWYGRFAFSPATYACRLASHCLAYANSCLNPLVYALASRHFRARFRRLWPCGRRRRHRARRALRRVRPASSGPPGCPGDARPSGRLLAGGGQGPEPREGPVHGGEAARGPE
Method: as §2, §3, §4, §5, §6
(§7) Membranes were harvested from stably transfected LM(tk−) cells. Adherent cells were washed twice in ice-cold phosphate buffered saline (138 mM NaCl, 8.1 mM Na2HPO4, 2.5 mM KCl, 1.2 mM KH2PO4, 0.9 mM CaCl2, 0.5 mM MgCl2, pH 7.4) and lysed by sonication in ice-cold sonication buffer (20 mM Tris-HCl, 5 mM EDTA, pH 7.7). Large particles and debris were cleared by low speed centrifugation (200×g, 5 min, 4° C.). Membranes were collected from the supernatant fraction by centrifugation (32,000×g, 18 min, 4° C.), washed with ice-cold hypotonic buffer, and collected again by centrifugation (32,000×g, 18 min, 4° C.). The final membrane pellet was resuspended by sonication into a small volume of ice-cold binding buffer (~1 ml for every 5 plates: 10 mM NaCl, 20 mM HEPES, 0.22 mM KH2PO4, 1.26 mM CaCl2, 0.81 mM MgSO4, pH 7.4). Protein concentration was measured by the Bradford method (Bradford, 1976) using Bio-Rad Reagent, with bovine serum albumin as a standard. Membranes were held on ice for up to one hour and used fresh, or flash frozen and stored in liquid nitrogen. Membranes were prepared similarly from CHO cells.
Galanin Receptors Binding assays were performed according to the following published methods: human GAL3 (PCT International Publication No. WO 98/15570), human GAL1 (PCT International Publication No. WO 95/2260), human GAL2 (PCT International Publication No. WO 97/26853).
Binding data were analyzed using nonlinear regression and statistical techniques available in the GraphPAD Prism package (San Diego, Calif.). Enzymatic assay data were derived from a standard curve of reference compound data.
The selectivity ratios for compounds of the claimed invention were calculated from the binding data presented in Tables 1-4, Table 7 and Table 9 of the subject application. […]

human GAL2 receptor = molecular target: T3, human GAL2 receptor (Homo sapiens, UniProt O43603); assay: Radioligand binding at cloned human GAL2 receptor; details: pyrimidines, read-out: Ki GalR2
T3 construct: expressed in transfected cells; membranes
T3 sequence (O43603 1-387): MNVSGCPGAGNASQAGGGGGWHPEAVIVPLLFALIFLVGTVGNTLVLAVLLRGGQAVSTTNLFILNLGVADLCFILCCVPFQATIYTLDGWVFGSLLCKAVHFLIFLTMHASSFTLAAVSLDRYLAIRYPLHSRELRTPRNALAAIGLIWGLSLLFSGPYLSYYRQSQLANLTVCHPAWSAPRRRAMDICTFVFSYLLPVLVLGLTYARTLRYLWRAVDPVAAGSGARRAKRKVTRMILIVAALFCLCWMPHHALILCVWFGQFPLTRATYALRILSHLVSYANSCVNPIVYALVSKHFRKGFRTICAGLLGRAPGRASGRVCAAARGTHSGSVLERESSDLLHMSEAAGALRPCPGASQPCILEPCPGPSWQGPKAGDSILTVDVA
Description: as §1, §2, §3, §4, §5, §6
as §7, with “Membranes were held on ice for up to one hour and used fresh, or flash frozen and stored in liquid nitrogen. Membranes were prepared similarly from CHO cells.” left out

[1] = molecular target: norepinephrine transporter (Rattus norvegicus, UniProt Q9WTR4); assay: Binding at native NE transporter; details: rNE Uptk
Method: The binding properties of the compounds of the present invention were evaluated at one or more cloned receptors or native, tissue-derived transporters, using protocols described below.
The methods to determine binding affinity at native transporters are described in the following publications: 5HT transporter and NE transporter (Owens et al., 1997), and DA transporter (Javitch et al, 1984).

male Sprague-Dawley rats [2] = assay: Rat Forced Swim Test (FST); format: in vivo; details: for Overall profile in the Forced Swim Test: conclusion of the study, male Sprague-Dawley rats
male Sprague-Dawley rats [3] = assay: Rat Social Interaction Test (SIT); format: in vivo
male Sprague-Dawley rats [4] = details: ex vivo data (Leonard, 1996); cited from earlier work
[5] = rat FST, single p.o. administration, 10 mg/kg, 1 hr before test, listed as Flu0x, 10 mg/kg

Compound | Ki (human GAL3 receptor) [nM] | Ki (human GAL2 receptor) [nM] | Overall profile in the Forced Swim Test (male Sprague-Dawley rats [2]) | other results
Cc1ccc(N(c2ccc(C)cc2)c2cc(N3CCCCC3)nc(N)n2)cc1 [Example 4] | 627 | > 5000 |  | Ki (human GAL1 receptor): > 5000 nM
Cc1ccc(Nc2cc(N3CCCCC3)nc(N(C)CCc3c[nH]c4ccccc34)n2)cc1 [Example 11] |  |  |  | Ki [1]: > 50000 nM
CN(CCc1c[nH]c2ccccc12)c1nc(Nc2ccc(F)c(F)c2)cc(N2CCCCC2)n1 [Example 15] |  |  |  | Ki [1]: > 50000 nM
COCCN(c1ccc(C)cc1)c1cc(N2CCCCC2)nc(NCCc2c[nH]c3ccccc23)n1 [Example 19] | 79 | 1770 |  | Ki (human GAL1 receptor): > 5000 nM
Cc1ccc(Nc2cc(N3CCCCC3)nc(N(C)CCc3ccccc3)n2)cc1 [Example 22] |  |  | has antidepressant properties | Ki [1]: 13100 nM
Cc1ccc(Nc2cc(N3CCCCC3)nc(N3CCN(c4ncccc4C(F)(F)F)CC3)n2)cc1 [Example 34] |  |  | produces an effect in the FST that resembles that of antidepressants | Rearing (male Sprague-Dawley rats [3]; SIT, single p.o., 0.03 mg/kg): 27 ± 3; Overall profile in the Social Interaction Test (male Sprague-Dawley rats [3]; conclusion of the study, male rats): produces an anxioltyic action in the social interaction test; GAL3/GAL1 binding ratio (Ki GAL1 divided by Ki GAL3) (human GAL3 receptor): 39 fold; Immobility (male Sprague-Dawley rats [2]; rat FST, single p.o. administration, 10 mg/kg, 1 hr before test, 10 mg/kg): not significantly decrease in immobility; Ki [1]: > 50000 nM
CN(C)c1cc(N)nc(N(c2ccccc2)c2ccc(Cl)cc2)n1 [Example 58] | 783 | > 5000 |  | Ki (human GAL1 receptor): > 5000 nM
Cc1ccc(Nc2cc(N(C)C)nc(N3CCc4ccccc43)n2)cc1 [Example 75] |  | 245 |  | 
CN(C)c1cc(Nc2ccc3ccccc3c2)nc(N(C)CCc2c[nH]c3ccccc23)n1 [Example 79] | 190 | 1660 |  | Ki (human GAL1 receptor): 3800 nM
O=C1C(=Nc2ccc(C(F)(F)F)cc2)c2ccccc2N1c1ccccc1 [Example 95, 1-PHENYL-3-[[4-(TRIFLUOROMETHYL)PHENYL]IMINO]-1,3-DIHYDRO-2H-INDOL-2-ONE] |  |  | does not produce antidepressant-like actions in the forced swim test | 
O=C1C(=Nc2ccc(Br)cc2)c2ccccc2N1c1ccccc1 [Example 98, 3-[(4-BROMOPHENYL)IMINO]-1-PHENYL-1,3-DIHYDRO-2H-INDOL-2-ONE] |  |  | produces a profile in the modified Lucki version of the FST resembling that of the clinically established antidepressant fluoxetine | Climbing (male Sprague-Dawley rats [2]; rat FST, single p.o. administration, 3 mg/kg, 1 hr before test, 3 mg/kg): significantly greater increase in climbing compared to 30 mg/kg of Example 98
O=C1C(=Nc2cc(Cl)cc(Cl)c2)c2ccccc2N1c1ccccc1 [Example 103, 3-[(3,5-DICHLOROPHENYL)IMINO]-1-PHENYL-1,3-DIHYDRO-2H-INDOL-2-ONE] |  |  | has antidepressant properties | 
CN(C)c1cc(Nc2ccc(Cl)c(Cl)c2)nc(N2CCN(Cc3ccccc3)CC2)n1 [Example 151] |  |  | produces behavioral effects in the FST in rats that resemble those of antidepressants | 
Cc1ccc(Nc2cc(N(C)C)nc(N3CCN(c4ncccc4C#N)CC3)n2)cc1 [Example 241] | 216 |  |  | 
O=C1/C(=N\c2ccc(Cl)c(Cl)c2)c2ccccc2N1c1ccsc1 [Example 272, (3Z)-3-[(3,4-DICHLOROPHENYL)IMINO]-1-(3-THIENYL)-1,3-DIHYDRO-2H-INDOL-2-ONE] |  |  | has the profile of an antidepressant | 
CNCCC(Oc1ccc(C(F)(F)F)cc1)c1ccccc1 (stereo not drawn) [Fluoxetine, fluoxetine, reference compound] |  |  |  | Climbing (male Sprague-Dawley rats [2]; [5]): 4.5 ± 1.2 counts; Diving (male Sprague-Dawley rats [2]; [5]): 1.0 ± 0.8 counts; p.o. dose required to inhibit 5-HT uptake in the CNS by 50% (male Sprague-Dawley rats [4]): 7 mg/kg
